Data reported in patent US10920190B2, “Folding biological tissue via programmed cellular contractility” (The Regents of the University of California, priority 2016, dated 2021).

Tests used:
Chick skin explants = test: Feather bud formation in chick skin explants in culture; design: species or system chickens; details: chick skin explants at Hamburger-Hamilton (HH) stage 32 in culture
Method: (§1) Blebbistatin (Abcam ab120491) and staurosporine (Sigma-Aldrich S5921) were added to cell media at the indicated concentrations by serial dilution from 10 mM DMSO stocks.
(§2) FIG. 21. (A). Gut villi in embryonic mice form in concert with condensation of PDGFR-positive mesenchymal fibroblasts at sites of villus curvature. These clusters are associated with local alignment and compaction of collagen 1 fibrils against the E-cadherin-positive epithelium. […] B) Feather buds in embryonic chickens form from a flat epithelium, and can be visualized with non-specific ethidium bromide staining Chick skin explants at Hamburger-Hamilton (HH) stage 32 form feather buds in culture, but feather bud spacing and height are disrupted in the presence of blebbistatin.

explanted guts = test: Cell clustering and collagen 1 remodeling in explanted embryonic guts; details: explanted guts of embryonic mice treated with inhibitor; results not shown
Method: as §1, §2

[1] = system: mesenchymal-like carcinoma cells; test: Unfolding of pre-folded isotropic reconstituted tissues after ablating actuator cells; type: cell-based
Method: as §1
Curvatures reported for cap reconstituted tissues were generated by radially reslicing and thresholding in ImageJ after manually picking the center of reconstituted tissues to serve as origin points. Radial slices were read into MATLAB and least-squares fitted to circles. Anisotropic curvatures were similarly generated for the indicated cutting planes and folds.

[2] = system: mesenchymal-like carcinoma cells; test: Efficacy of staurosporine on cells cultured on standard tissue culture plastic (cell viability); type: cell-based; details: 20 μM, n=6
Method: as §1

SMILES	feather bud spacing and height (Chick skin explants)	cell clustering and collagen 1 remodeling (explanted guts)	pre-folded isotropic tissue curvatures (maximum curvature relative to average maximum curvature prior to addition) ([1]; 20 μM, n=4 reconstituted tissues per condition)	unfolding of pre-folded tissues ([1]; upon inducing apoptosis of condensing cells using staurosporine (FIG. 13))	cell death (cell viability) [2]
Cc1ccc2c(c1)C(=O)C1(O)CCN(c3ccccc3)C1=N2 (centres unmarked) [blebbistatin]	disrupted	does not occur			
CN[C@@H]1C[C@H]2O[C@@](C)([C@@H]1OC)n1c3ccccc3c3c4c(c5c6ccccc6n2c5c31)C(=O)NC4 [staurosporine]			modest reductions	less than 40%	nearly complete cell death
